Test system: MRSA clinical isolates
Assay: Antibiotic susceptibility profile of MRSA clinical isolates (EUCAST breakpoints)
Format: cell-based, Staphylococcus aureus
Excerpt: Clinical MRSA isolates with multidrug resistance were obtained from the collection of the Research Institute of Antimicrobial Chemotherapy, Smolensk State Medical Academy.

C/C(=C\C(=O)OCCCCCCCCC(=O)O)C[C@@H]1OC[C@H](C[C@@H]2O[C@H]2[C@@H](C)[C@H](C)O)[C@@H](O)[C@H]1O [Mupirocin] was tested, and the Drug sensibility profile (MRSA strain 1) was “S”, the Drug sensibility profile (MRSA strain 2) was “S” and the Drug sensibility profile (MRSA strain 3) was “S”. The Drug sensibility profile (MRSA strain 4) was “S”, the Drug sensibility profile (MRSA strain 5) was “S” and the Drug sensibility profile (MRSA strain 6) was “S”. For the same molecule, the Drug sensibility profile (MRSA strain 7) was “S”, the Drug sensibility profile (MRSA strain 8) was “S” and the Drug sensibility profile (MRSA strain 9) was “S”. For the same molecule, the Drug sensibility profile (MRSA strain 10) was “S”, the Drug sensibility profile (MRSA strain 12) was “S” and the Drug sensibility profile (MRSA strain 13) was “S”. For the same molecule, the Drug sensibility profile (MRSA strain 14) was “S”, the Drug sensibility profile (MRSA strain 15) was “S” and the Drug sensibility profile (MRSA strain 16) was “S”. For the same molecule, the Drug sensibility profile (MRSA strain 17) was “S”, the Drug sensibility profile (MRSA strain 18) was “S” and the Drug sensibility profile (MRSA strain 21) was “S”. The Drug sensibility profile (MRSA strain 23) was “S”, the Drug sensibility profile (MRSA strain 24) was “S” and the Drug sensibility profile (MRSA strain 25) was “S”. For the same molecule, the Drug sensibility profile (MRSA strain 26) was “S”, the Drug sensibility profile (MRSA strain 27) was “S” and the Drug sensibility profile (MRSA strain 28) was “S”. For the same molecule, the Drug sensibility profile (MRSA strain 29) was “S”, the Drug sensibility profile (MRSA strain 30) was “S” and the Drug sensibility profile (MRSA strain 31) was “S”. For the same molecule, the Drug sensibility profile (MRSA strain 34) was “S”, the Drug sensibility profile (MRSA strain 35) was “S” and the Drug sensibility profile (MRSA strain 36) was “S”. For the same molecule, the Drug sensibility profile (MRSA strain 40) was “S”, the Drug sensibility profile (MRSA strain 41) was “S” and the Drug sensibility profile (MRSA strain 42) was “S”. The Drug sensibility profile (MRSA strain 43) was “S”, the Drug sensibility profile (MRSA strain 44) was “S” and the Drug sensibility profile (MRSA strain 45) was “S”. For the same molecule, the Drug sensibility profile (MRSA strain 46) was “S”, the Drug sensibility profile (MRSA strain 48) was “S” and the Drug sensibility profile (MRSA strain 49) was “S”. For the same molecule, the Drug sensibility profile (MRSA strain 50) was “I” and the Drug sensibility profile (MRSA strain 51) was “S”.

In the case of Cc1cc(NS(=O)(=O)c2ccc(N)cc2)no1 [SUL, sulfamethoxazole], the Drug sensibility profile (MRSA strain 1) was “R”, the Drug sensibility profile (MRSA strain 2) was “S” and the Drug sensibility profile (MRSA strain 3) was “S”. The Drug sensibility profile (MRSA strain 4) was “S”, the Drug sensibility profile (MRSA strain 5) was “S” and the Drug sensibility profile (MRSA strain 6) was “S”. The Drug sensibility profile (MRSA strain 7) was “S”, the Drug sensibility profile (MRSA strain 8) was “S” and the Drug sensibility profile (MRSA strain 9) was “S”. For the same molecule, the Drug sensibility profile (MRSA strain 10) was “S”, the Drug sensibility profile (MRSA strain 12) was “S” and the Drug sensibility profile (MRSA strain 13) was “S”. The Drug sensibility profile (MRSA strain 14) was “S”, the Drug sensibility profile (MRSA strain 15) was “S” and the Drug sensibility profile (MRSA strain 16) was “S”. For the same molecule, the Drug sensibility profile (MRSA strain 17) was “I”, the Drug sensibility profile (MRSA strain 18) was “S” and the Drug sensibility profile (MRSA strain 21) was “S”. The Drug sensibility profile (MRSA strain 23) was “S”, the Drug sensibility profile (MRSA strain 24) was “S” and the Drug sensibility profile (MRSA strain 25) was “S”. For the same molecule, the Drug sensibility profile (MRSA strain 26) was “S S S S S S S”, the Drug sensibility profile (MRSA strain 27) was “S” and the Drug sensibility profile (MRSA strain 28) was “S”. The Drug sensibility profile (MRSA strain 29) was “S”, the Drug sensibility profile (MRSA strain 30) was “S” and the Drug sensibility profile (MRSA strain 31) was “S”. The Drug sensibility profile (MRSA strain 34) was “S”, the Drug sensibility profile (MRSA strain 35) was “S” and the Drug sensibility profile (MRSA strain 36) was “S S S S S S S”. The Drug sensibility profile (MRSA strain 40) was “S”, the Drug sensibility profile (MRSA strain 41) was “S” and the Drug sensibility profile (MRSA strain 42) was “S”. For the same molecule, the Drug sensibility profile (MRSA strain 43) was “S”, the Drug sensibility profile (MRSA strain 44) was “S” and the Drug sensibility profile (MRSA strain 45) was “S”. For the same molecule, the Drug sensibility profile (MRSA strain 46) was “S”, the Drug sensibility profile (MRSA strain 48) was “S” and the Drug sensibility profile (MRSA strain 49) was “S”. The Drug sensibility profile (MRSA strain 50) was “S” and the Drug sensibility profile (MRSA strain 51) was “S”.

With CN(C)[C@@H]1C(O)=C(C(N)=O)C(=O)[C@@]2(O)C(O)=C3C(=O)c4c(O)cccc4[C@@](C)(O)[C@H]3C[C@@H]12 [TET, tetracycline] the Drug sensibility profile (MRSA strain 1) was “R”, the Drug sensibility profile (MRSA strain 2) was “R” and the Drug sensibility profile (MRSA strain 3) was “S”. For the same molecule, the Drug sensibility profile (MRSA strain 4) was “S”, the Drug sensibility profile (MRSA strain 5) was “S” and the Drug sensibility profile (MRSA strain 6) was “S”. The Drug sensibility profile (MRSA strain 7) was “R”, the Drug sensibility profile (MRSA strain 8) was “R” and the Drug sensibility profile (MRSA strain 9) was “R”. For the same molecule, the Drug sensibility profile (MRSA strain 10) was “S”, the Drug sensibility profile (MRSA strain 12) was “R” and the Drug sensibility profile (MRSA strain 13) was “R”. The Drug sensibility profile (MRSA strain 14) was “S”, the Drug sensibility profile (MRSA strain 15) was “R” and the Drug sensibility profile (MRSA strain 16) was “S”. For the same molecule, the Drug sensibility profile (MRSA strain 17) was “S”, the Drug sensibility profile (MRSA strain 18) was “S” and the Drug sensibility profile (MRSA strain 21) was “R”. The Drug sensibility profile (MRSA strain 23) was “S”, the Drug sensibility profile (MRSA strain 24) was “S” and the Drug sensibility profile (MRSA strain 25) was “S”. For the same molecule, the Drug sensibility profile (MRSA strain 26) was “S S S S S S S”, the Drug sensibility profile (MRSA strain 27) was “R” and the Drug sensibility profile (MRSA strain 28) was “R”. For the same molecule, the Drug sensibility profile (MRSA strain 29) was “S”, the Drug sensibility profile (MRSA strain 30) was “S” and the Drug sensibility profile (MRSA strain 31) was “S”. The Drug sensibility profile (MRSA strain 34) was “S”, the Drug sensibility profile (MRSA strain 35) was “S” and the Drug sensibility profile (MRSA strain 36) was “S S S S S S S”. The Drug sensibility profile (MRSA strain 40) was “R”, the Drug sensibility profile (MRSA strain 41) was “R” and the Drug sensibility profile (MRSA strain 42) was “S”. The Drug sensibility profile (MRSA strain 43) was “S”, the Drug sensibility profile (MRSA strain 44) was “S” and the Drug sensibility profile (MRSA strain 45) was “I”. For the same molecule, the Drug sensibility profile (MRSA strain 46) was “S”, the Drug sensibility profile (MRSA strain 48) was “R” and the Drug sensibility profile (MRSA strain 49) was “R”. For the same molecule, the Drug sensibility profile (MRSA strain 50) was “R” and the Drug sensibility profile (MRSA strain 51) was “S”.

For Cn1nnc(-c2ccc(-c3ccc(N4C[C@H](CO)OC4=O)cc3F)cn2)n1 [Tedizolid], the Drug sensibility profile (MRSA strain 6) was “S”, the Drug sensibility profile (MRSA strain 7) was “S” and the Drug sensibility profile (MRSA strain 8) was “S”. The Drug sensibility profile (MRSA strain 9) was “S”, the Drug sensibility profile (MRSA strain 10) was “S” and the Drug sensibility profile (MRSA strain 12) was “S”. The Drug sensibility profile (MRSA strain 13) was “S”, the Drug sensibility profile (MRSA strain 14) was “S” and the Drug sensibility profile (MRSA strain 15) was “S”. For the same molecule, the Drug sensibility profile (MRSA strain 16) was “S”, the Drug sensibility profile (MRSA strain 17) was “S” and the Drug sensibility profile (MRSA strain 18) was “S”. For the same molecule, the Drug sensibility profile (MRSA strain 21) was “S”, the Drug sensibility profile (MRSA strain 23) was “S” and the Drug sensibility profile (MRSA strain 24) was “S”. For the same molecule, the Drug sensibility profile (MRSA strain 25) was “S”, the Drug sensibility profile (MRSA strain 26) was “S” and the Drug sensibility profile (MRSA strain 27) was “S”. The Drug sensibility profile (MRSA strain 28) was “S”, the Drug sensibility profile (MRSA strain 29) was “S” and the Drug sensibility profile (MRSA strain 36) was “S”. For the same molecule, the Drug sensibility profile (MRSA strain 41) was “S”, the Drug sensibility profile (MRSA strain 42) was “S” and the Drug sensibility profile (MRSA strain 44) was “S”. For the same molecule, the Drug sensibility profile (MRSA strain 45) was “S” and the Drug sensibility profile (MRSA strain 51) was “S”.

With CCCCCCCCCCNCCN[C@@]1(C)C[C@H](O[C@H]2[C@H](Oc3c4cc5cc3Oc3ccc(cc3Cl)[C@@H](O)[C@@H](NC(=O)[C@@H](CC(C)C)NC)C(=O)N[C@@H](CC(N)=O)C(=O)N[C@H]5C(=O)N[C@H]3C(=O)N[C@H](C(=O)N[C@H](C(=O)O)c5cc(O)c(CNCP(=O)(O)O)c(O)c5-c5cc3ccc5O)[C@H](O)c3ccc(c(Cl)c3)O4)O[C@H](CO)[C@@H](O)[C@@H]2O)O[C@@H](C)[C@H]1O [Telavancin] the Drug sensibility profile (MRSA strain 25) was “S”, the Drug sensibility profile (MRSA strain 26) was “S” and the Drug sensibility profile (MRSA strain 27) was “S”. The Drug sensibility profile (MRSA strain 28) was “S”, the Drug sensibility profile (MRSA strain 29) was “S” and the Drug sensibility profile (MRSA strain 36) was “S”. For the same molecule, the Drug sensibility profile (MRSA strain 41) was “S”, the Drug sensibility profile (MRSA strain 42) was “S” and the Drug sensibility profile (MRSA strain 44) was “S”. For the same molecule, the Drug sensibility profile (MRSA strain 45) was “S” and the Drug sensibility profile (MRSA strain 51) was “S”.

With CN(C)c1cc(NC(=O)CNC(C)(C)C)c(O)c2c1C[C@H]1C[C@H]3[C@H](N(C)C)C(O)=C(C(N)=O)C(=O)[C@@]3(O)C(O)=C1C2=O [Tigecycline] the Drug sensibility profile (MRSA strain 1) was “S”, the Drug sensibility profile (MRSA strain 2) was “R” and the Drug sensibility profile (MRSA strain 3) was “S”. The Drug sensibility profile (MRSA strain 4) was “S”, the Drug sensibility profile (MRSA strain 5) was “S” and the Drug sensibility profile (MRSA strain 6) was “S”. For the same molecule, the Drug sensibility profile (MRSA strain 7) was “S”, the Drug sensibility profile (MRSA strain 8) was “R” and the Drug sensibility profile (MRSA strain 9) was “R”. For the same molecule, the Drug sensibility profile (MRSA strain 10) was “S”, the Drug sensibility profile (MRSA strain 12) was “R” and the Drug sensibility profile (MRSA strain 13) was “R”. The Drug sensibility profile (MRSA strain 14) was “S”, the Drug sensibility profile (MRSA strain 15) was “S” and the Drug sensibility profile (MRSA strain 16) was “S”. The Drug sensibility profile (MRSA strain 17) was “R”, the Drug sensibility profile (MRSA strain 18) was “S” and the Drug sensibility profile (MRSA strain 21) was “S”. The Drug sensibility profile (MRSA strain 23) was “S”, the Drug sensibility profile (MRSA strain 24) was “S” and the Drug sensibility profile (MRSA strain 25) was “S”. For the same molecule, the Drug sensibility profile (MRSA strain 26) was “S”, the Drug sensibility profile (MRSA strain 27) was “S” and the Drug sensibility profile (MRSA strain 28) was “S”. The Drug sensibility profile (MRSA strain 29) was “S”, the Drug sensibility profile (MRSA strain 30) was “S” and the Drug sensibility profile (MRSA strain 31) was “S”. The Drug sensibility profile (MRSA strain 34) was “S”, the Drug sensibility profile (MRSA strain 35) was “S” and the Drug sensibility profile (MRSA strain 36) was “S”. For the same molecule, the Drug sensibility profile (MRSA strain 40) was “S”, the Drug sensibility profile (MRSA strain 41) was “S” and the Drug sensibility profile (MRSA strain 42) was “S”. For the same molecule, the Drug sensibility profile (MRSA strain 43) was “S”, the Drug sensibility profile (MRSA strain 44) was “S” and the Drug sensibility profile (MRSA strain 45) was “S”. For the same molecule, the Drug sensibility profile (MRSA strain 46) was “S”, the Drug sensibility profile (MRSA strain 48) was “S” and the Drug sensibility profile (MRSA strain 49) was “S”. The Drug sensibility profile (MRSA strain 50) was “S” and the Drug sensibility profile (MRSA strain 51) was “S”.
